Data published in US7060721B1, “Imidazole compounds and medicinal use thereof” (Fujisawa Pharmaceutical Co., Ltd., priority 1998, dated 2006).

Structure (SMILES)	melting point [°C]
Cc1nc(Cl)c(/C=C/C(=O)NS(=O)(=O)/C=C/c2ccccc2)n1Cc1ncc(C(F)(F)F)cc1Cl [Example 47, (E)-3-(4-chloro-1-((3-chloro-5-(trifluoromethyl)pyridin-2-yl)methyl)-2-methylimidazol-5-yl)-N-((E)-2-phenylethenylsulfonyl)-2-propenamide]	249 to 252
CCCCCS(=O)(=O)NC(=O)/C=C/c1c(Cl)nc(CC)n1Cc1ccc(/C=C/c2ccccc2)cc1Cl [Example 62, (E)-3-(4-chloro-1-(2-chloro-4-((E)-2-phenylethenyl)benzyl)-2-ethylimidazol-5-yl)-N-(1-pentanesulfonyl)-2-propenamide]	197 to 200
CCC/C=C/S(=O)(=O)NC(=O)/C=C/c1c(Cl)nc(C)n1Cc1ccc(C#Cc2ccccc2)cc1Cl [Example 45, (E)-3-(4-chloro-1-(2-chloro-4-(phenylethynyl)benzyl)-2-methylimidazol-5-yl)-N-((E)-1-penten-1-ylsulfonyl)-2-propenamide]	207 to 210
Cc1nc(Cl)c(/C=C/C(=O)NS(=O)(=O)c2ccc(Br)s2)n1Cc1ccc(-c2ccccc2)cc1Cl [Example 14, (E)-N-((5-bromo-2-thienyl)sulfonyl)-3-(4-chloro-1-(2-chloro-4-phenylbenzyl)-2-methylimidazol-5-yl)-2-propenamide]	234 to 235
Cc1nc(Cl)c(/C=C/C(=O)NS(=O)(=O)/C=C/c2ccccc2)n1Cc1ccc(OCC2CCCC2)cc1Cl [Example 21, (2E)-3-(4-chloro-1-(2-chloro-4-((cyclopentyl)methyloxy)benzyl)-2-methylimidazol-5-yl)-N-(((E)-2-phenylethenyl)sulfonyl)-2-propenamide]	200 to 201
CCCOc1ccc(Cn2c(C)nc(Cl)c2/C=C/C(=O)NS(=O)(=O)/C=C/c2ccccc2)c(Cl)c1 [Example 16, (E)-3-(4-chloro-1-(2-chloro-4-(1-propoxy)benzyl)-2-methylimidazol-5-yl)-N-(((E)-2-phenylethenyl)sulfonyl)-2-propenamide]	199 to 201
CCCCCOc1ccc(Cn2c(/C=C(\Cc3cccnc3)C(=O)NS(=O)(=O)/C=C/c3ccccc3)cnc2C)c(Cl)c1 [Example 69, (E)-3-(1-(2-chloro-4-(1-pentyloxy)benzyl)-2-methylimidazol-5-yl)-2-((3-pyridyl)methyl)-N-((E)-2-phenylethenesulfonyl)-2-propenamide]	156 to 158
CCCCCOc1ccc(Cn2c(C)nc(Br)c2/C=C/C(=O)NS(=O)(=O)/C=C/c2ccccc2)c(Cl)c1 [Example 65, (E)-3-(4-bromo-1-(2-chloro-4-(1-pentyloxy)benzyl)-2-methylimidazol-5-yl)-N-((E)-2-phenylethenesulfonyl)-2-propenamide]	208 to 209
CCCCS(=O)(=O)NC(=O)/C=C/c1c(Cl)nc(CC)n1Cc1ccc(C#Cc2ccccc2)cc1Cl [Example 56, (E)-N-(1-butanesulfonyl)-3-(4-chloro-1-(2-chloro-4-(phenylethynyl)benzyl)-2-ethylimidazol-5-yl)-2-propenamide]	165 to 167
Cc1nc(Cl)c(/C=C/C(=O)NS(=O)(=O)/C=C/c2ccccc2)n1Cc1ccc(C(F)(F)F)cc1Cl [Example 29, (E)-3-(4-chloro-1-(2-chloro-4-(trifluoromethyl)benzyl)-2-methylimidazol-5-yl)-N-(((E)-2-phenylethenyl)sulfonyl)-2-propenamide]	261 to 263
Cc1nc(Cl)c(/C=C/C(=O)NS(=O)(=O)/C=C/c2ccccc2)n1Cc1ccc(-c2cccs2)cc1Cl [Example 4, (2E)-3-(4-chloro-1-(2-chloro-4-(2-thienyl)benzyl)-2-methylimidazol-5-yl)-N-(((E)-2-phenylethenyl)sulfonyl)-2-propenamide]	246 to 248
